Test results as given in US5182280A, “Derivatives of benzimidazole and their use as antihistamines” (Laboratorios Del Dr. Esteve, S. A., priority 1990, dated 1993).

Tests used:
[1] = system: sleep time induced by pentobarbital; assay: Sedative effect: potentiation of the sleep time induced by pentobarbital; details: for Potentiation of sleep time (in words): orally; for Potentiation of sleep time: 1 h before sodium pentobarbital (35 mg/kg, s.c.)
Protocol: Study of the potentiation of the sleep time due to pentobarbital was carried out by following the method described by L. E. Allen and cols. […] The products studied were administered orally. […] The sleep time was compared with a group of control animals, treated only with sodium pentobarbital.

[2] = system: death induced by compound 48/80; assay: "In vivo" antihistaminic activity: protection from death induced by 48/80 in the rat; details: ip, i.p. 60 min before 48/80 (0.5 mg/kg, i.v.), survival 4 h after, read-out: ED-50, protection from death induced by 48/80
Protocol: The antihistaminic activity was studied by determining the protection in the face of the mortality induced by the product 48/80 in the rat. This test was realized in accordance with the technique described by C. J. E. Niemegeers and cols. (Arch, int. Pharmacodyn. 234, 164-176 (1978).
The products according to the present invention are administered i.p. to rats. After 60 minutes the compound 48/80 is administered (0.5 mg/kg, i.v.). The protective activity is defined as the survival of the rats 4 hours after the i.v. injection of 48/80.
The activity of the products at several doses in order to determine the dose capable of protecting 50% of the animals (ED-50) was studied.

[3] = Sedative effect: Irwin test (passivity and ataxia); assay type: in vivo; details: rats, i.p., 1, 2 and 3 hours after treatment
Protocol: Pas.: Passivity, sedation, prostration. Quantitative evaluation between 0 and 3. They were performed 1, 2 and 3 hours after the treatment.
Atax.: Ataxia, the alterations in coordination in locomotion were evaluated. They were evaluated between 0 and 3. They were performed 1, 2 and 3 hours after the treatment.

In the case of `CN(C)CCOC(c1ccccc1)c1ccccc1` [Difenhidramine, reference compound], the “Potentiation of sleep time (in words)” value ([1]; 20 mg/kg) was “potentiates significantly the sleep time”, the ED50 [2] was 0.84 mg/kg and the “Atax. (ataxia; score 0 to 3)” value ([3]; 40 mg/kg) was 0.9. For the same molecule, the “Pas. (passivity, sedation, prostration; score 0 to 3)” value ([3]; 40 mg/kg) was 0.
For `CCOCCn1c(CN2CCN(CCCCn3cc(Br)cn3)CC2)nc2ccccc21` [Example 1, 1-(2-Ethoxyethyl)-2-4-[4--(4-bromopyrazol-1-yl)butyl]piperazin-1-ylmethyl benzimidazole], the ED50 [2] was 0.09 mg/kg, the “Atax. (ataxia; score 0 to 3)” value ([3]; 80 mg/kg) was 1.3 and the “Pas. (passivity, sedation, prostration; score 0 to 3)” value ([3]; 80 mg/kg) was 1.4.
With `CCOCCn1c(N2CCN(CCCCn3cc(Br)cn3)CC2)nc2ccccc21` [Example 2, 1-(2-Ethoxyethyl)-2-4-[4-(4-bromopyrazol1yl)butyl]piperazinyl benzimidazole] the ED50 [2] was 2.7 mg/kg, the “Atax. (ataxia; score 0 to 3)” value ([3]; 40 mg/kg) was 0.4 and the “Pas. (passivity, sedation, prostration; score 0 to 3)” value ([3]; 40 mg/kg) was 0. The “Atax. (ataxia; score 0 to 3)” value ([3]; 80 mg/kg) was 1.3 and the “Pas. (passivity, sedation, prostration; score 0 to 3)” value ([3]; 80 mg/kg) was 0.7.
With `CCOCCn1c(CN2CCN(CCCCn3ccnc3)CC2)nc2ccccc21` [Example 3, 1-(2-Ethoxyethyl)-2-4-[4-(imidazol-1-yl)butyl]piperazin-1-ylmethyl benzimidazole] the ED50 [2] was 0.13 mg/kg, the “Atax. (ataxia; score 0 to 3)” value ([3]; 80 mg/kg) was 0 and the “Pas. (passivity, sedation, prostration; score 0 to 3)” value ([3]; 80 mg/kg) was 0.
With `CCOCCn1c(CN2CCN(CCCCn3cncn3)CC2)nc2ccccc21` [Example 4, 1-(2-Ethoxyethyl)-2-4-[4-(1,2,4-triazol-1-yl)butyl]piperazin-1-ylmethyl benzimidazole] the ED50 [2] was 0.036 mg/kg, the “Atax. (ataxia; score 0 to 3)” value ([3]; 80 mg/kg) was 0.5 and the “Pas. (passivity, sedation, prostration; score 0 to 3)” value ([3]; 80 mg/kg) was 0.4.
In the case of `CCOCCn1c(CN2CCN(CCCCn3cc(S(=O)(=O)O)cn3)CC2)nc2ccccc21` [Example 5, 1-(2-Ethoxyethyl)-2-4-[4-(4-sulfopyrazol-1-yl)butyl]piperazin-1-ylmethyl benzimidazole], the ED50 [2] was 2.6 mg/kg, the “Atax. (ataxia; score 0 to 3)” value ([3]; 80 mg/kg) was 0.4 and the “Pas. (passivity, sedation, prostration; score 0 to 3)” value ([3]; 80 mg/kg) was 0.4.
In the case of `CCOCCn1c(CN2CCN(CCCCn3cc(C(=O)O)cn3)CC2)nc2ccccc21` [Example 6, 1-(2-Ethoxyethyl)-2-4-[4-(4-carboxypyrazol-1-yl)butyl]piperazin-1-ylmethylbenzimidazole], the ED50 [2] was 0.064 mg/kg, the “Atax. (ataxia; score 0 to 3)” value ([3]; 80 mg/kg) was 0 and the “Pas. (passivity, sedation, prostration; score 0 to 3)” value ([3]; 80 mg/kg) was 0.
With `CCOCCn1c(CN2CCN(CCCCn3cccn3)CC2)nc2ccccc21` [Example 7, 1-(2-Ethoxyethyl)-2-4-[4-(pyrazol-1-yl)butyl]piperazin-1-ylmethyl benzimidazole] the “Potentiation of sleep time” value ([1]; 80 mg/kg orally) was 10%, the “Potentiation of sleep time” value ([1]; 160 mg/kg orally) was 11% and the “Potentiation of sleep time” value ([1]; 320 mg/kg orally) was 22%. For the same molecule, the “Potentiation of sleep time (in words)” value ([1]; 320 mg/kg, maximum dose tested) was “does not potentiate the sleep time”, the ED50 [2] was 0.02 mg/kg and the “Atax. (ataxia; score 0 to 3)” value ([3]; 80 mg/kg) was 0. For the same molecule, the “Pas. (passivity, sedation, prostration; score 0 to 3)” value ([3]; 80 mg/kg) was 0, the “Atax. (ataxia; score 0 to 3)” value ([3]; 160 mg/kg) was 0.3 and the “Pas. (passivity, sedation, prostration; score 0 to 3)” value ([3]; 160 mg/kg) was 0.
For `CCOCCn1c(CN2CCN(CCCCn3cccc3)CC2)nc2ccccc21` [Example 8, 1-(2-Ethoxyethyl)-2-4-[4-(pyrrol-1-yl)butyl]piperazin-1-yl-methyl benzimidazole], the ED50 [2] was 0.02 mg/kg, the “Atax. (ataxia; score 0 to 3)” value ([3]; 80 mg/kg) was 0 and the “Pas. (passivity, sedation, prostration; score 0 to 3)” value ([3]; 80 mg/kg) was 0.
For `CCOCCn1c(N2CCN(CCCCn3cc(C(=O)O)cn3)CC2)nc2ccccc21` [Example 9, 1-(2-Ethoxyethyl)-2-4-[4-(4-carboxypryazol-1-yl)butyl]piperazine-1-yl benzimidazole], the ED50 [2] was 0.84 mg/kg, the “Atax. (ataxia; score 0 to 3)” value ([3]; 80 mg/kg) was 0 and the “Pas. (passivity, sedation, prostration; score 0 to 3)” value ([3]; 80 mg/kg) was 0.
Work on `CCOCCn1c(CN2CCN(CCCCn3cnc(Cl)c3Cl)CC2)nc2ccccc21` [Example 10] yielded an ED50 [2] of 0.66 mg/kg.
